Laboratory results as given in the supplement of paper PMC8967900.

Experiments:
Assay in all cases: selective drug sensitivity score (sDSS, relative to normal bone marrow) (sDSS (score)); higher = more potent and effective on the cell line relative to normal bone marrow cells
Conditions in all cases: 72 h
380 = test system: 380
ALL-SIL = test system: ALL-SIL
COG-LL-319h = test system: COG-LL-319h
COG-LL-394h = test system: COG-LL-394h
DND-41 = test system: DND-41
HAL-01 = test system: HAL-01
HPB-ALL = test system: HPB-ALL
JURKAT = test system: JURKAT
KASUMI-10 = test system: KASUMI-10
KASUMI-9 = test system: KASUMI-9
LC4-1 = test system: LC4-1
MHH-CALL-3 = test system: MHH-CALL-3
MN-60 = test system: MN-60
MOLT-14 = test system: MOLT-14
NALL-1 = test system: NALL-1
P12-ICHIKAWA = test system: P12-ICHIKAWA
P30-OHKUBO = test system: P30-OHKUBO
RCH-ACV = test system: RCH-ACV
SEM cells = test system: SEM cells
TANOUE = test system: TANOUE
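Further: ALL cell lines in 384-well plates, five doses spanning 10,000-fold, each plate scaled between vehicle and 100 µmol/L benzalkonium chloride controls, sDSS an adapted area-under-curve metric.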

Row | Compound | selective drug sensitivity score 380 | selective drug sensitivity score (ALL-SIL) | selective drug sensitivity score (COG-LL-319h) | selective drug sensitivity score (COG-LL-394h) | selective drug sensitivity score (DND-41) | selective drug sensitivity score (HAL-01) | selective drug sensitivity score (HPB-ALL) | selective drug sensitivity score (JURKAT) | selective drug sensitivity score (KASUMI-10) | selective drug sensitivity score (KASUMI-9) | selective drug sensitivity score (LC4-1) | selective drug sensitivity score (MHH-CALL-3) | selective drug sensitivity score (MN-60) | selective drug sensitivity score (MOLT-14) | selective drug sensitivity score (NALL-1) | selective drug sensitivity score (P12-ICHIKAWA) | selective drug sensitivity score (P30-OHKUBO) | selective drug sensitivity score (RCH-ACV) | selective drug sensitivity score (SEM cells) | selective drug sensitivity score (TANOUE)
1 | Cn1cc(C2=C(c3cn(C4CCN(Cc5ccccn5)CC4)c4ccccc34)C(=O)NC2=O)c2ccccc21 [Enzastaurin] (top concentration 10000 nM) | 3.96 | 3.96 | 2.26 | 6.86 | 4.56 | -0.34 | -0.24 | 4.26 | 4.56 | 4.36 | 3.26 | 3.86 | 5.16 | 6.06 | -0.34 | 4.66 | 3.46 | 2.36 | 6.76 | 2.46
2 | NS(=O)(=O)NCCNc1nonc1/C(=N/O)Nc1ccc(F)c(Br)c1 [Epacadostat] (top concentration 10000 nM) | -0.26 | -0.26 | -0.26 | -0.26 | -0.26 | 0.84 | -0.16 | -0.16 | -0.06 | 0.74 | -0.26 | -0.26 | 1.44 | -0.26 | 3.74 | -0.26 | -0.06 | -0.26 | 8.34 | -0.26
3 | CCOc1ccccc1-n1c(C(C)N2CCN(C(=O)COc3ccc(Cl)cc3)CC2)nc2ccccc2c1=O (stereo not given) [Erastin] (top concentration 10000 nM) | 24.8 | 6.94 | 19.3 | -0.76 | 7.14 | 18.5 | 6.54 | -0.16 | -4.36 | 7.74 | 16 | 24.4 | -6.86 | 8.54 | 6.64 | 7.94 | 9.54 | 17.6 | 6.34 | -9.96
4 | COc1cc(OC)cc(N(CCNC(C)C)c2ccc3ncc(-c4cnn(C)c4)nc3c2)c1 [Erdafitinib] (top concentration 1000 nM) | -0.56 | 2.74 | 0.44 | -0.56 | -0.26 | 6.94 | 1.64 | -0.56 | -0.06 | 0.34 | -0.56 | 0.64 | -0.56 | -0.56 | 5.34 | -0.56 | 1.74 | 2.04 | 0.24 | -0.56
5 | CC(C)(C)NC(=O)[C@H]1CC[C@H]2[C@@H]3CC[C@H]4NC(=O)C=C[C@]4(C)[C@H]3CC[C@]12C [Finasteride] (top concentration 10000 nM) | -0.52 | 1.78 | -0.42 | -0.52 | 2.98 | 1.08 | 0.28 | -0.52 | -0.42 | -0.12 | 2.08 | -0.52 | -0.52 | -0.52 | 3.48 | -0.52 | -0.52 | -0.52 | 1.48 | -0.52
6 | O=c1[nH]c(=O)n([C@H]2C[C@H](O)[C@@H](CO)O2)cc1F [Floxuridine] (top concentration 10000 nM) | 37.9 | 18.3 | 26.8 | 3.62 | 21 | 23.7 | 1.12 | 18.7 | 29.7 | 29 | 36.2 | 26.3 | 10.3 | 27.1 | 21 | 30.4 | 37 | 39.1 | 31.5 | 2.92
7 | CNc1nc(Nc2cn(C(C)(C)C#N)nc2C)ncc1C(F)(F)F [GNE-0877] (top concentration 1000 nM) | 0 | 0 | 0 | 0 | 0 | 0 | 0 | 0 | 0 | 0 | 0 | 0 | 0 | 0 | 0 | 0 | 0 | 0 | 0 | 0
8 | CCCc1cc(C)[nH]c(=O)c1CNC(=O)c1cc(-c2ccnc(N3CCN(C)CC3)c2)cc2c1cnn2C(C)C [GSK343] (top concentration 1000 nM) | 0 | 0 | 0 | 0.1 | 0 | 0 | 0 | 0 | 0 | 0 | 0 | 0 | 0 | 2 | 0 | 0 | 0 | 0 | 0 | 0
9 | O=C(O)c1ccc(O)c2ncccc12 [IOX-1] (top concentration 100000 nM) | 8.64 | 6.24 | 2.94 | -1.56 | 6.24 | 3.34 | 2.94 | 3.54 | 1.54 | 2.94 | 3.24 | 0.24 | 4.54 | 5.64 | 2.24 | 4.34 | 3.04 | 3.74 | 1.84 | 2.24
10 | CC(=O)[C@]1(O)Cc2c(O)c3c(c(O)c2[C@@H](O[C@H]2C[C@H](N)[C@H](O)[C@H](C)O2)C1)C(=O)c1ccccc1C3=O [Idarubicin] (top concentration 1000 nM) | 13.7 | 4.64 | 16.7 | 7.94 | 0.34 | 7.24 | 3.14 | 3.34 | 8.14 | 4.94 | 4.04 | 14.6 | -2.26 | 10.5 | -3.66 | 8.24 | 3.94 | 12.7 | 6.74 | -12.6
11 | COc1cc2nccc(Oc3ccc(NC(=O)NC4CC4)c(Cl)c3)c2cc1C(N)=O [Lenvatinib] (top concentration 2500 nM) | 0.06 | 5.56 | 6.16 | 0.26 | -0.24 | 0.76 | -0.24 | -0.24 | 1.86 | 1.36 | -0.24 | -0.24 | -0.24 | -0.14 | -0.24 | -0.24 | -0.14 | 5.36 | 0.36 | -0.24
12 | N#Cc1ccc(C(c2ccc(C#N)cc2)n2cncn2)cc1 [Letrozole] (top concentration 10000 nM) | -0.04 | -0.04 | -0.04 | -0.04 | 1.06 | -0.04 | -0.04 | -0.04 | -0.04 | -0.04 | -0.04 | -0.04 | -0.04 | -0.04 | -0.04 | -0.04 | -0.04 | -0.04 | -0.04 | 1.16
13 | CCNCCS(=O)(=O)NC[C@@]1(c2ccccc2)SC(NC(=O)C(C)(C)C)=NN1C(=O)C(C)(C)C [Litronesib] (top concentration 1000 nM) | 19 | 19.2 | 22.4 | 7.74 | 8.64 | 1.94 | 19.7 | 19.2 | 14.7 | 18.4 | 19.8 | 7.44 | 4.64 | 20.7 | 10.9 | 18.5 | 19.6 | 22.1 | 20.5 | -7.36
14 | CC[C@H](C)C(=O)O[C@H]1C[C@@H](C)C=C2C=C[C@H](C)[C@H](CC[C@@H]3C[C@@H](O)CC(=O)O3)[C@H]21 [Lovastatin] (top concentration 10000 nM) | 7.8 | 0.9 | -0.1 | -0.1 | -0.1 | 2.5 | -0.1 | 0.1 | -0.1 | 2.7 | 0.8 | 8.4 | -0.1 | -0.1 | -0.1 | 1.4 | 2.5 | 0.2 | 5 | -0.1
15 | Cn1cc(-c2cnn3c(N)c(Br)c([C@@H]4CCCNC4)nc23)cn1 [MK-8776] (top concentration 2500 nM) | 3.64 | 2.04 | 1.04 | -0.96 | 3.84 | -0.46 | -1.46 | -1.46 | 2.24 | 1.54 | 0.54 | 0.04 | -1.46 | -1.26 | -1.46 | -0.36 | -1.16 | 3.94 | 2.64 | -1.46
16 | Cc1cnc(-c2ccccc2C(C)C)nc1NCc1ccc(-n2ccnn2)cc1 [ML323] (top concentration 10000 nM) | -0.36 | 2.64 | 1.14 | 3.64 | 1.34 | 0.04 | 0.64 | 4.14 | -0.36 | 0.04 | 0.54 | -0.36 | 0.04 | 1.94 | 0.14 | 1.74 | 0.54 | 3.34 | 1.14 | 1.44
17 | O=C(CCNC(=O)c1ccc(OC(F)(F)F)cc1)N[C@@H]1CCCc2ccccc21 [ML390] (top concentration 50000 nM) | 12.4 | 2 | 16.9 | -1.2 | 5.4 | 4.9 | 6.5 | 14.8 | 4.1 | 13.1 | 7.4 | -1.2 | 16.8 | 16.6 | -1.2 | 18.5 | 13.6 | 21 | 10.8 | 3.5
18 | CN(C)C(=N)NC(=N)N [Metformin] (top concentration 100000 nM) | -0.02 | -0.02 | -0.02 | -0.02 | 0.08 | -0.02 | -0.02 | -0.02 | -0.02 | -0.02 | -0.02 | -0.02 | -0.02 | -0.02 | -0.02 | -0.02 | -0.02 | -0.02 | -0.02 | -0.02
